Data: US20050234030A1, “Modulators of CRTH2, COX-2 and FAAH” (priority 2004, published 2005)

Row | SMILES | melting point [°C]
1 | COc1ccc2c(c1)c(CC(=O)O)c(C)n2C(=O)C1CCCCC1 [[1-(cyclohexylcarbonyl)-5-methoxy-2-methyl-1H-indol-3-yl]acetic acid] | 129
2 | COc1cc2c(CC(=O)O)c(C)n(C(=O)c3cccs3)c2cc1F [[6-fluoro-5-methoxy-2-methyl-1-(thien-2-ylcarbonyl)-1H-indol-3-yl]acetic acid] | 137
3 | Cc1c(CC(=O)O)c2cc(O)c(F)cc2n1C(=O)c1cccs1 [[6-fluoro-5-hydroxy-2-methyl-1-(thien-2-ylcarbonyl)-1H-indol-3-yl] acetic acid] | 219
4 | Cc1c(CC(=O)O)c2cc(O)ccc2n1C(=O)N1CCCCC1 [[5-hydroxy-2-methyl-1-(piperidin-1-ylcarbonyl)-1H-indol-3-yl]acetic acid] | 235
5 | COc1cc2c(CC(=O)O)c(C)n(C(=O)C3CCCCC3)c2cc1F [[1-(cyclohexylcarbonyl)-6-fluoro-5-methoxy-2-methyl-1H-indol-3-yl]acetic acid] | 104
